# Laboratory results reported in article PMC9738062, “Selectively Halogenated Flavonolignans—Preparation and Antibacterial Activity” (International Journal of Molecular Sciences, 2022).
# What was measured:
# [1] = tested on: pooled male rat microsomal liver membranes; assay: Inhibition of lipid peroxidation induced by tert-butyl hydroperoxide; type: biochemical; details: male rat microsomes, read-out: ILP IC50
# Description: (§1) The antiradical activity was evaluated by the ability to scavenge ABTS and DPPH radicals. Reducing capacity was assessed by the ability to reduce the Folin–Ciocalteu reagent (FCR) and ferric ions (FRAP). The ability to inhibit lipid peroxidation of pooled male rat microsomal liver membranes induced by tert-butyl hydroperoxide was also evaluated and the results were expressed as IC50 values.
# DPPH radical scavenging = details: 1,1-diphenyl-2-picrylhydrazyl radical scavenging
# Description: (§2) To further elucidate how halogenation affects other properties of the flavonoids studied, their 2,2′-azino-bis-(3-ethylbenzothiazoline-6-sulfonic acid) cation (ABTS) and 1,1-diphenyl-2-picrylhydrazyl (DPPH) radical scavenging, the Folin–Ciocalteu reagent (FCR) reducing, the ferric-reducing antioxidant power (FRAP), and the anti-lipoperoxidation activities were evaluated by in vitro methods (Supplementary Information Tables S1 and S2).
# as §1
# [2] = Folin-Ciocalteu reagent reduction; details: gallic acid equivalents
# Description: as §2, §1
# [3] = Ferric reducing antioxidant power (FRAP); details: Fe2+ equivalents
# Description: as §2, §1
# [4] = tested on: Vibrio campbellii BAA 1119 (AI-2); assay: Viability of the quorum-sensing reporter culture (resazurin assay), AI-2 strain; type: cell-based; details: BAA1119, V. campbellii BAA 1119, resazurin assay, read-out: IC50 (concentration that halved the viability)
# Source text: (§3) Commercially available strains of Vibrio campbellii were used to evaluate the ability of flavonoids and their derivatives to inhibit bacterial quorum sensing. V. campbellii uses two types of autoinducing molecules for its communication—N-acyl-homoserine lactones (Autoinducer I, AI-1, strain BAA 1118) and furanosyl borate diester (Autoinducer II, AI-2, strain BAA 1119). AI-1-based communication is mainly used by Gram-negative bacteria, while AI-2-based communication is found in both Gram-negative and Gram-positive bacteria. The mutant strains of V. campbellii BA1118 and BA1119 respond only to AI-1 or AI-2, respectively, and the response to the respective AI concentration is measured as luminescence. The higher the AI concentration, the higher the luminescence signal. The ability to inhibit the communication was expressed as the selectivity index (SI), calculated as the ratio between the concentration that halved the viability (IC50) and the concentration that halved the communication (EC50) of the respective V. campbellii strains. […] The antimicrobial activity of quorum-sensing inhibitors is undesirable because it creates a selection pressure and can lead to the development of resistance.
# (§4) The inhibition of bacterial extracellular communication was measured using Vibrio campbellii strains BAA-1118 and BAA-1119. The experiment was performed according to the methods of Szemerédi et al.. Briefly, 5 × 10^5 CFU/mL (colony-forming units per milliliter) were seeded in an Autoinducer Bioassay medium (NaCl 17.5 g/L, MgSO4 12.3 g/L, Casamino acids 2 g/L, 10 mL of 1 M potassium phosphate pH 7.0, 10 mL of 0.1 M L-arginine, and 10 mL of glycerol in 970 mL of deionized water) in a 96-well plate. Immediately, the tested compounds were added at the final concentration of 0.2–200 µM and luminescence was recorded for 16 h by a SpectraMax i3x microplate reader set at 30 °C, an integration time of 10,000 ms, and shaking for 60 s before measurement. […] The selectivity index was calculated as the […]. The EC50 and IC50 were calculated using GraphPad Prism software version 5.00 for Windows with a nonlinear regression curve fit.
# [5] = tested on: multidrug-resistant P. aeruginosa; assay: Sensitization of antibiotic-resistant bacteria (compound plus breakpoint antibiotic concentration); type: cell-based, Pseudomonas aeruginosa; details: flavonoid 40 µM, 24 h; for Effect on viability in combination with colistin: colistin 2 mg/L; for Effect on viability in combination with imipenem: imipenem 4 mg/L; for Effect on viability in combination with imipenem: key: -: no effect (100% viability) was observed up to the highest flavonolignan concentration tested (>40 µM); reversion of resistance: the compound reversed the resistant phenotype to a sensitive one
# Description: (§5) Clinically relevant antibiotics were selected for sensitization testing according to the European Committee on Antimicrobial Susceptibility Testing (EUCAST). Neither colistin and imipenem at breakpoint concentrations (according to EUCAST, […] and […]) affected the growth of the multidrug-resistant clinical strain of P. aeruginosa. Similarly, neither chloramphenicol and gentamicin at breakpoint concentrations ([…], respectively) affected the multidrug-resistant clinical strain of S. aureus. Flavonoids and their derivatives (1–40 µM) were used in combination therapy, along with the breakpoint concentration of antibiotics. After co-incubation, the minimum inhibitory concentration of flavonoids inhibiting the visible growth of bacteria was determined (Table 2).
# (§6) Clinical isolates of P. aeruginosa and S. aureus were obtained from the General University Hospital in Prague (Prague, Czech Republic). P. aeruginosa was resistant to ciprofloxacin, oxacillin, ticarcillin, colistin, gentamicin, and imipenem. S. aureus was resistant to ciprofloxacin, gentamicin, erythromycin, chloramphenicol, clindamycin, oxacillin, cefotaxime, and vancomycin. Bacteria were cultivated in Mueller–Hinton broth (MH broth, Merck). The susceptibility of the bacteria was evaluated by the minimum inhibitory concentrations (MIC). The MIC of derivatives in the presence of the antibiotic cut-off concentration was determined according to ISO 20776-1: 2020. The antibiotic cut-off concentration was chosen according to the European Committee on Antimicrobial Susceptibility Testing (EUCAST, Clinical breakpoints—bacteria (ver. 11.0), 1 January 2021). The 40 µM concentration of the derivatives was chosen as the highest concentration for the tests. Cell viability was determined by measuring absorbance (A590 nm) after 24 h incubation at 37 °C, 150 rpm.
# [6] = ABTS cation radical scavenging; details: vitamin C equivalent antioxidant capacity
# Description: as §2, §1
# [7] = tested on: multidrug-resistant S. aureus; assay: Sensitization of antibiotic-resistant bacteria (compound plus breakpoint antibiotic concentration); type: cell-based, Staphylococcus aureus; details: flavonoid 40 µM, 24 h; for Effect on viability in combination with chloramphenicol: chloramphenicol 8 mg/L
# Description: as §5, §6
# [8] = tested on: lipopolysaccharide-stimulated macrophages (RAW 264.7); assay: Inhibition of nitric oxide production (Griess reagent); type: cell-based, murine; details: Mus musculus, RAW264.7; LPS 100 ng/mL, 24 h; highest tested concentration 100 µM; read-out: NO Production IC50
# Description: The anti-inflammatory activity of the tested flavonolignans was determined as the ability to reduce nitric oxide production by murine macrophages (RAW 264.7) stimulated by bacterial lipopolysaccharides, as previously described. […] For the experiment, 1 × 10^6 cells/mL was seeded into the 96-well plate (100 µL/well). […] After 24 h, the medium was mixed with Griess reagent (0.04 g/mL), prepared freshly in deionized water at the ratio of 1:1. The absorbance was measured after 15 min at 540 nm by the SpectraMax i3x microplate reader. Cell viability was determined by resazurin assay.
# [9] = tested on: Vibrio campbellii BAA 1118 (AI-1); assay: Viability of the quorum-sensing reporter culture (resazurin assay), AI-1 strain; type: cell-based; details: BAA1118, V. campbellii BAA 1118, resazurin assay, read-out: IC50 (concentration that halved the viability)
# Source text: as §3, §4
# [10] = tested on: human dermal fibroblasts (HDF); assay: Cytotoxicity (resazurin assay, 72 h); type: cell-based; details: Fibroblast
# Description: (§7) The cytotoxicity of flavonoids and their halogenated derivatives was determined as their ability to decrease the viability of human dermal fibroblasts (HDF) and doxorubicin-resistant human ovarian carcinomas (HOC/DOX). Both cell lines were cultivated in Dulbecco’s Modified Eagle’s Medium supplemented with fetal bovine serum (FBS, 10% v/v) and 1 × antibiotic antimycotic solution and incubated at 37 °C in the atmosphere of 5% CO2. The experiment was performed according to a previously published method. Briefly, 1 × 10^5 cells/mL were seeded into a 96-well plate (100 µL/well). After 24 h, flavonoids and their derivatives were administered at the concentration range of 31.25–500 µM. After 72 h, the viability was determined by resazurin assay (0.03 mg/mL of resazurin in PBS), where the fluorescence was measured after 2 h of incubation by the SpectraMax i3x microplate reader at a wavelength of 560/590 nm (excitation/emission). The concentration inhibiting half of the population (IC50) was determined using nonlinear regression in GraphPad Prism software. The selectivity index was calculated as the ratio between the IC50 for HDF (control, non-cancerous cells) and the IC50 for HOC/DOX (cancer cells).
# [11] = tested on: doxorubicin-resistant human ovarian carcinoma (HOC/DOX); assay: Cytotoxicity (resazurin assay, 72 h); type: cell-based; details: for IC50: Homo sapiens, 72 h, resazurin assay; for SI (selectivity index): ratio IC50 for HDF / IC50 for HOC/DOX
# Description: as §7
# [12] = tested on: Vibrio campbellii BAA 1118 (AI-1); assay: microbe, parasite or virus in culture; type: cell-based; details: for EC50: Vibrio campbellii, BAA1118, 16 h, read-out: EC50 (concentration that halved the communication)
# Source text: as §3, §4
# [13] = tested on: Vibrio campbellii BAA 1119 (AI-2); assay: microbe, parasite or virus in culture; type: cell-based; details: for EC50: Vibrio campbellii, BAA1119, 16 h, read-out: EC50 (concentration that halved the communication); for SI (selectivity index): ratio IC50 (viability) / EC50 (communication), BAA 1119
# Source text: as §3, §4
# [14] = tested on: S. aureus biofilm formation; set-up: method as in PMID 28365326; details: cited from earlier work
# breast cancer cell lines = tested on: breast cancer cell lines; set-up: method as in PMID 23962161; details: cited from earlier work
Compound,IC50 [1],IC50 (DPPH radical scavenging),FCR [GAE] [2],FRAP [Fe2+eq] [3],IC50 [4],Effect on viability in combination with imipenem [5],ABTS [CEAC] [6],Effect on viability in combination with chloramphenicol [7],IC50 [8],IC50 [9],IC50 [10],IC50 [11],SI (selectivity index) [11],EC50 [12],EC50 [13],Concentration inhibiting S. aureus biofilm formation [14],other results
"Cc1c(C)c2c(c(C)c1O)CCC(C)(C(=O)O)O2 (stereo not shown) [Trolox, reference compound]",32.7 ± 2.4 µM,3.5 µM,,,,,,,,,,,,,,,
"COc1cc([C@@H]2Oc3c(O)cc([C@H]4Oc5c(Br)c(O)c(Br)c(O)c5C(=O)[C@@H]4O)cc3[C@H]2CO)ccc1O [compound 15, 6,8-Dibromosilychristin A]",459 µM,106 µM,2.03 ± 0.05 GAE,0.34 ± 0.03 Fe2+eq,> 200 µM,-,1.28 ± 0.02 CEAC,-,> 100 µM,> 200 µM,176 µM,249 µM,0.71,> 200 µM,> 200 µM,,Effect on viability in combination with colistin [5]: -
"COc1cc(C2Oc3cc(-c4oc5c(Br)c(O)c(Br)c(O)c5c(=O)c4O)ccc3OC2CO)ccc1O (stereo not shown) [compound 17, 6,8-dibromo-2,3-dehydrosilybin AB]",56.7 ± 1.6 µM,11.7 µM,1.50 ± 0.02 GAE,0.54 ± 0.04 Fe2+eq,127 ± 7.4 µM,-,1.49 ± 0.04 CEAC,-,44.4 ± 2.4 µM,> 200 µM,41.7 ± 1 µM,91.3 ± 1.6 µM,0.46,55.5 ± 1.6 µM,4.1 ± 0.2 µM,,Effect on viability in combination with gentamicin ([7]; gentamicin 1 mg/L): -; SI (selectivity index) [13]: 31.2 ± 3.5
"COc1cc([C@@H]2Oc3c(O)cc([C@H]4Oc5c(I)c(O)c(I)c(O)c5C(=O)[C@@H]4O)cc3[C@H]2CO)ccc1O [compound 27, 6,8-diiodosilychristin A]",97.2 ± 3.5 µM,168 µM,1.79 ± 0.05 GAE,0.21 ± 0.01 Fe2+eq,,,1.13 ± 0.01 CEAC,,,,,,,,,,
"COc1cc([C@@H]2Oc3cc([C@H]4Oc5cc(O)c(Cl)c(O)c5C(=O)[C@@H]4O)ccc3O[C@H]2CO)ccc1O [compound 28, 6-Chlorosilybin B]",,> 500 µM,1.25 ± 0.01 GAE,0.050 ± 0.002 Fe2+eq,> 200 µM,-,0.71 ± 0.02 CEAC,-,52.4 ± 4.5 µM,130 ± 5.9 µM,147 µM,272 µM,0.54,114 ± 5 µM,3.2 ± 0.2 µM,,"Effect on viability in combination with colistin [5]: -; SI (selectivity index) ([12]; ratio IC50 (viability) / EC50 (communication), BAA 1118): 1.1 ± 0.1; SI (selectivity index) [13]: ≥62.6 ± 3.6"
COc1ccc([C@@H]2CC(=O)c3c(O)cc(O)cc3O2)cc1O [hesperetin],,,,,,,,,,,,,,,,≤ 4 µM,
O=c1c(O)c(-c2cc(O)c(O)c(O)c2)oc2cc(O)cc(O)c12 [myricetin],,,,,,,,,,,,,,,,≤ 4 µM,
O=C(CCc1ccc(O)cc1)c1c(O)cc(O)cc1O [phloretin],,,,,,,,,,,,,,,,≤ 4 µM,
prulonide A,,,,,,,,,,,,,,,,,Concentration showing cytotoxicity (breast cancer cell lines): 1000 nM
